For assay [1], the system named is platelet aggregation (platelet rich plasma). Nature of the assay: Platelet aggregation inhibitory activity, collagen-induced (Pharmacological test 1). It is filed as cell-based, human beings. The conditions noted are these: Homo sapiens, Collagen (1 to 4 μg/ml), read-out: Platelet aggregation inhibitory rate (%); for inhibition at 100 µM: Conc. 10^-4 mol; for inhibition at 10 µM: Conc. 10^-5 mol; for inhibition at 1 µM: Conc. 10^-6 mol. The method, then:
(§1) The platelet aggregation inhibitory activity of test compounds was measured in accordance with the method of Born et al. [J. Physiol., London, 162, 67, (1962)] using a platelet aggregator [Platelet Aggregation Tracer manufactured by Niko Biosceince K.K.].
(§2) To 9 volumes of blood taken from human beings was added 1 volume of 3.8% citric acid and this sample was centrifuged at 1100 rpm for 10 minutes to give a platelet rich plasma (PRP). The remaining sample was further centrifuged at 3000 rpm for 15 minutes to give a platelet poor plasma (PPP).
(§3) The platelets in the PRP obtained above was counted using Coulter Counter, Coulter electronics inc. and diluted to 300000 platelets/μl with the PPP to prepare a PRP solution.
(§4) A cell for measurement of aggregation was charged with a solution containing a fixed concentration of test compounds (1 to 2 μl) and the PRP solution prepared above (200 μl) and warmed at 37° C. for 1 minute. Then, to the cell was added a suspension of adenosine diphosphate (ADP, manufactured by Sigma) or collagen (Collagen Reagent Horm, manufactured by Hormon-Chemie) to induce platelet aggregation and the transparency of the cell was measured and a platelet aggregation curve was prepared. The final concentration of the above ADP and the collagen was adjusted to 14 to 16 μM and 1 to 4 μg/ml, respectively.
(§5) Maximum Aggregation Rate (MAR) of platelets was calculated from the platelet aggregation curve by the following formula: […]
(§6) wherein (a) represents the transparency of PRP measured in the similar test, (b) represents the transparency of the PRP solution containing the test compound and the aggregation inducer at the time of maximum change in the above test, and (c) represents the transparency of the PPP solution measured in the similar test.
(§7) MAR for control with no addition of the test compound was also calculated, and based on this value, the platelet aggregation inhibitory rate (%) of each test compound at various concentrations in the above test was calculated from the following formula:
(§8) Inhibitory rate=[1-(MAR of PRP with addition of test compound)/(MAR of PRP
(§9) with no addition of test compound)]×100

For assay [2] the test system is unchanged. In words: Platelet aggregation inhibitory activity, ADP-induced (Pharmacological test 1). In kind it is cell-based, human beings. To be noted: Homo sapiens, ADP (14 to 16 μM), read-out: Platelet aggregation inhibitory rate (%); for inhibition at 100 µM: Conc. 10^-4 mol; for inhibition at 10 µM: Conc. 10^-5 mol; for inhibition at 1 µM: Conc. 10^-6 mol. The procedure: as §1, §2, §3, §4, §5, §6, §7, §8, §9

The test system of assay [3] is C-AMP phosphodiesterase. Nature of the assay: C-AMP phosphodiesterase inhibitory activity (Pharmacological test 2). It is filed as biochemical, dog. To be noted: C-AMP 0.4 μmol.
Assay [4] has as its system Brain blood flow. Nature of the assay: Topical blood flow in the brain, colored microspheres, anesthetized dog (Pharmacological Test 3). In kind it is in vivo, hybrid dog.
The test system of assay [5] is Cerebellum blood flow. Nature of the assay: Topical blood flow in the cerebellum, colored microspheres, anesthetized dog (Pharmacological Test 3). In kind it is in vivo, hybrid dog.
Assay [6] concerns aggregates of platelet (platelet rich plasma). Nature of the assay: Platelet aggregate dissociation, collagen-induced aggregates (Pharmacological Test 4). The conditions noted are these: Homo sapiens, 5 min, after 5 minutes, read-out: Platelet aggregate dissociation rate (%). In kind it is cell-based, human beings. The procedure: as §2, §3
(§10) In the same manner as in the above test 1, the obtained PRP solution (200 μl ) was put in cell for measurement of aggregation and the cell was warmed at 37° C. for 1 minute. Thereto was added ADP or collagen suspension (final concentration of 14 to 16 μM and 1 to 4 μg/ml, respectively) without addition of the test compound to form aggregates of platelet. MAR was determined after stable transparency was obtained. This MAR was referred to as "MAR-1". Then, the test compound was added and MAR was determined from the transparency after 5 minutes. This MAR was referred to as "MAR-2".
(§11) Platelet aggregate dissociation rate (%) was calculated in accordance with the following formula: […]
(§12) Platelet aggregate dissociation rate
(§13) (%)=[(MAR-1)-(MAR-2)]/(MAR-1)×100

Assay [7] shares this test system. In words: Platelet aggregate dissociation, ADP-induced aggregates (Pharmacological Test 4). It is filed as cell-based, human beings. To be noted: Homo sapiens, 5 min, after 5 minutes, read-out: Platelet aggregate dissociation rate (%). The procedure:
as §2, §3, §10, §11, §12, §13

Where [8] appears, read: 3 μg/kg/min i.v. over 30 minutes.
The mark [9] stands for this setting: 10 μg/kg/min i.v. over 30 minutes.

Consider `CN(Cc1ccccc1)CC(O)COc1ccc2[nH]c(=O)ccc2c1` (stereo not shown) [compound 1], for which, in assay [1], the inhibition at 100 µM turned out to be 96.3%, the inhibition at 10 µM is 70.7% and the inhibition at 1 µM came to 3.8%. Further, in assay [2], the inhibition at 100 µM was found to be 79%, the inhibition at 10 µM was determined as 31.7% and the inhibition at 1 µM was 14.9%.
With `COc1cccc(CNCC(O)COc2ccc3[nH]c(=O)ccc3c2)c1` (stereo not shown) [compound 2], in assay [1], the inhibition at 100 µM stood at 97.2%, the inhibition at 10 µM turned out to be 95.7% and the inhibition at 1 µM was 23.1%. Further, the “Phosphodiesterase inhibitory rate (%)” value in assay [3] (Conc. 10^-4 mol) amounted to 2.32%. In assay [3] (Conc. 10^-5 mol), the “Phosphodiesterase inhibitory rate (%)” value came out at 48.63%. Further, in assay [2], the inhibition at 100 µM turned out to be 89.1%, the inhibition at 10 µM worked out at 43.9% and the inhibition at 1 µM is 14.9%.
For `O=c1ccc2cc(OCC(O)CNCc3ccc(Cl)cc3)ccc2[nH]1` (stereo not shown) [compound 3], in assay [1], the inhibition at 100 µM was 97.8%, the inhibition at 10 µM came out at 96.7% and the inhibition at 1 µM amounted to 17%. Moreover, the “Phosphodiesterase inhibitory rate (%)” value in assay [3] (Conc. 10^-4 mol) is recorded as 32.46%. For the same compound, the “Phosphodiesterase inhibitory rate (%)” value in assay [3] (Conc. 10^-5 mol) is 86.11%. Moreover, in assay [2], the inhibition at 100 µM came to 78.2%, the inhibition at 10 µM was 44.5% and the inhibition at 1 µM turned out to be 13.2%.
On to `CN(Cc1ccccn1)CC(O)COc1ccc2[nH]c(=O)ccc2c1` (stereo not shown) [compound 4], for which, in assay [1], the inhibition at 100 µM stood at 97.2% and the inhibition at 10 µM worked out at 64.3%. For the same compound, in assay [2], the inhibition at 100 µM was found to be 77.5%, the inhibition at 10 µM is 30.5% and the inhibition at 1 µM amounted to 13.5%.
Take `CN(CCN(C)c1ccccc1)CC(O)COc1ccc2[nH]c(=O)ccc2c1` (stereo not shown) [compound 5]: in assay [1], the inhibition at 100 µM was found to be 96.5%, the inhibition at 10 µM worked out at 72.9% and the inhibition at 1 µM is 44.4%. Also, in assay [2], the inhibition at 100 µM turned out to be 84.8%, the inhibition at 10 µM stood at 38.4% and the inhibition at 1 µM was found to be 21.6%.
Regarding `COc1ccc(CNCC(O)COc2ccc3[nH]c(=O)ccc3c2)cc1` (stereo not shown) [compound 6], in assay [1], the inhibition at 100 µM stood at 97%, the inhibition at 10 µM was 96.7% and the inhibition at 1 µM is 17%. Moreover, in assay [2], the inhibition at 100 µM was 77.5%, the inhibition at 10 µM was found to be 43.8% and the inhibition at 1 µM was determined as 7.4%.
With `COc1ccc(CNCC(O)COc2ccc3[nH]c(=O)ccc3c2)cc1OC` (stereo not shown) [compound 7], the inhibition at 100 µM was 96.9% in assay [1], 96.4% in assay [2], 28% in assay [6] (Conc. 100 μmol) and 71.7% in assay [7] (Conc. 100 μmol). The inhibition at 10 µM was found to be 91.6% in assay [1], 39% in assay [2], 13.3% in assay [6] (Conc. 10 μmol) and 41.5% in assay [7] (Conc. 10 μmol). In addition, the inhibition at 1 µM in assay [1] was 4.1%; in assay [2], 9.5%. The “Increasing rate of blood flow (%)” value is 25.9 ± 7.0% in assay [4] (setting [8]), 57.8 ± 10.9% in assay [4] (setting [9]), 15.2 ± 11.5% in assay [5] (setting [8]) and 29.7 ± 11.5% in assay [5] (setting [9]). Further, the “Phosphodiesterase inhibitory rate (%)” value in assay [3] (Conc. 10^-4 mol) was determined as 15.27%; in assay [3] (Conc. 10^-5 mol), 72.39%. The inhibition at 30 µM was 26.7% in assay [6] (Conc. 30 μmol) and 43.3% in assay [7] (Conc. 30 μmol).
`O=c1ccc2cc(OCC(O)CNCc3cccc(Cl)c3)ccc2[nH]1` (stereo not shown) [compound 8]: in assay [1], the inhibition at 100 µM was found to be 93.1%, the inhibition at 10 µM was 27.7% and the inhibition at 1 µM came out at 12.3%. In assay [2], the inhibition at 100 µM was determined as 62%, the inhibition at 10 µM came out at 27.4% and the inhibition at 1 µM amounted to 5.1%.
Regarding `CCOc1ccc(CNCC(O)COc2ccc3[nH]c(=O)ccc3c2)cc1OCC` (stereo not shown) [compound 9], the “Phosphodiesterase inhibitory rate (%)” value is reported as 50.63% in assay [3] (Conc. 10^-4 mol) and 89.07% in assay [3] (Conc. 10^-5 mol).
The corresponding values for `O=c1ccc2cc(OCC(O)CN(CCO)Cc3ccc(F)cc3)ccc2[nH]1` (stereo not shown) [compound 10] are 23.90% and 74.63%.

These data come from patent US5401754A, “Agent for treating thrombosis and phosphodiesterase inhibitor” (Otsuka Pharmaceutical Company, Limited, priority 1991, dated 1995).
